# Test results taken from BindingDB's records for doi:10.7270/Q2N014XN (Srmlsc, 2007).
# Structures can show the parent of a compound that is named as a salt.
# Biological target: T1, Diphosphomevalonate decarboxylase (Streptococcus pneumoniae serotype 2 (strain D39 / NCTC 7466), UniProt A0A0H2ZN59)
# T1 sequence (A0A0H2ZN59 whole entry): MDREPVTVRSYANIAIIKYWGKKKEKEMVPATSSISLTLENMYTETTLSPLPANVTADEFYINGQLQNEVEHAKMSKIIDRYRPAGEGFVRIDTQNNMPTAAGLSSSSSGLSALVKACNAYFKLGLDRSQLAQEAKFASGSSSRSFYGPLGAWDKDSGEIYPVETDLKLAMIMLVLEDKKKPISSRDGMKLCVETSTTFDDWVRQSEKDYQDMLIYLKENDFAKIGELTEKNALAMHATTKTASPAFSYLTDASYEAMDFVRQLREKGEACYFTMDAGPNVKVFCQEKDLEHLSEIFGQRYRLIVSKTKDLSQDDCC
# Assay: S. pneumoniae DPM-DC inhibitor potency, dose response, biochemical, PK/LDH-coupled NADH fluorescence, hexokinase coupling counter-screen (AID 550)
# Details: not given
row,Compound,IC50
1,"Cc1ccc2cc3cc(C(=O)N4CCCCCC4)oc3nc2c1 [1-azepanyl-(7-methyl-2-furo[2,3-b]quinolinyl)methanone]",58.1 µM
2,"O=c1c2ccccc2sn1-c1ccc(S(=O)(=O)N2CCCCC2)cc1 [2-(4-piperidin-1-ylsulfonylphenyl)-1,2-benzothiazol-3-one]",2.15 µM
3,FC(F)(F)c1cc(-c2ccco2)nc(-n2nnc3ccccc32)n1 [1-[4-(2-furanyl)-6-(trifluoromethyl)-2-pyrimidinyl]benzotriazole],11.2 µM
4,"CC1(C)C(C=C(Cl)Cl)C1C(=O)N1CCN(c2ccccc2)CC1 (stereo unspecified) [1-{[3-(2,2-dichlorovinyl)-2,2-dimethylcyclopropyl]carbonyl}-4-phenylpiperazine]",> 10000 µM
5,"Cc1ccc(NC(=O)N(CCCN2CCOCC2)Cc2cc3cc4c(cc3[nH]c2=O)OCO4)cc1 [3-(4-methylphenyl)-1-(3-morpholin-4-ylpropyl)-1-[(6-oxidanylidene-5H-[1,3]dioxolo[4,5-g]quinolin-7-yl)methyl]urea]",45.6 µM
6,CC(=O)c1cccc(NC(=O)Nc2cccnc2)c1 [1-(3-acetylphenyl)-3-(3-pyridinyl)urea],> 10000 µM
7,O=C(CSc1nnc2ccccn12)Nc1ccccc1C(=O)NC1CC1 [MLS000056825],> 10000 µM
8,"Cc1ccc(S(=O)(=O)c2cc3c(=O)n4ccccc4nc3n(CC3CCCO3)c2=N)cc1C (stereo unspecified) [2-azanylidene-3-(3,4-dimethylphenyl)sulfonyl-1-(oxolan-2-ylmethyl)dipyrido[1,2-d:3',4'-f]pyrimidin-5-one]",43.6 µM
9,"COc1ccc(-c2cc(C(F)(F)F)nc(SCCC(=O)N3CCN4CCCC4C3)n2)cc1 (stereo unspecified) [1-(3,4,6,7,8,8a-hexahydro-1H-pyrrolo[1,2-a]pyrazin-2-yl)-3-[4-(4-methoxyphenyl)-6-(trifluoromethyl)pyrimidin-2-yl]sulfanyl-propan-1-one]",376 µM
10,"CCc1ccc(S(=O)(=O)NCc2cn3ccsc3n2)s1 [5-ethyl-N-(6-imidazo[2,1-b]thiazolylmethyl)-2-thiophenesulfonamide]",> 10000 µM
11,Cc1cccc(C)c1NC(=O)C(c1ccccc1)N1CCN(C(=O)c2ccco2)CC1 (stereo unspecified) [MLS000086418],> 10000 µM
12,"Cc1nc(NCCN)c(C#N)c2c1COC(C)(C)C2 [6-(2-aminoethylamino)-3,3,8-trimethyl-1,4-dihydropyrano[3,4-c]pyridine-5-carbonitrile]",73.8 µM
13,"CCc1nnc(NC(=O)CSc2nnc(COc3ccccc3)n2Cc2ccccc2)s1 [2-(4-Benzyl-5-phenoxymethyl-4H-[1,2,4]triazol-3-ylsulfanyl)-N-(5-ethyl-[1,3,4]thiadiazol-2-yl)-acetamide]",> 10000 µM
14,O=P1(NC2CCCC2)COc2ccccc2OC1 [MLS000084153],> 10000 µM
15,"Cc1noc(C)c1CSc1nc2ccccc2s1 [4-(1,3-benzothiazol-2-ylsulfanylmethyl)-3,5-dimethyl-1,2-oxazole]",> 10000 µM
16,"Cc1c(NC(=O)C2CCN(S(=O)(=O)c3ccccc3)CC2)c(=O)n(-c2ccccc2)n1C [1-(benzenesulfonyl)-N-(1,5-dimethyl-3-oxo-2-phenyl-4-pyrazolyl)-4-piperidinecarboxamide]",> 10000 µM
17,COc1ccc(C(O)Cn2c(=N)n(CCCN(C)C)c3ccccc32)cc1 (stereo unspecified) [2-[2-azanylidene-3-[3-(dimethylamino)propyl]benzimidazol-1-yl]-1-(4-methoxyphenyl)ethanol;hydrochloride],> 10000 µM
18,"CSc1ncc(Cl)c(C(=O)Nc2nnc(SC)s2)n1 [5-chloranyl-2-methylsulfanyl-N-(5-methylsulfanyl-1,3,4-thiadiazol-2-yl)pyrimidine-4-carboxamide]",> 10000 µM
19,"CCOC(=O)c1cc2c(=O)n3cccc(C)c3nc2n(CCc2ccccc2)c1=N [2-imino-10-methyl-5-oxo-1-(2-phenylethyl)-3-dipyrido[3,4-c:1',2'-f]pyrimidinecarboxylic acid ethyl ester]",27.2 µM
20,"Cc1cc(C)n2nc3nc(N4CCCCC4)nc(-c4ccco4)c3c2n1 [4-(2-furyl)-6,8-dimethyl-2-piperidin-1-ylpyrimido[4',5':3,4]pyrazolo[1,5-a]pyrimidine]",111 µM
21,COc1ccc(-n2c(NC(=O)c3ccco3)c(C#N)c3nc4ccccc4nc32)cc1 [MLS000079925],16.9 µM
22,"CCN(CC)CCCN(Cc1cc2cc3c(cc2[nH]c1=O)OCO3)C(=O)Nc1ccccc1OC [1-[3-(diethylamino)propyl]-3-(2-methoxyphenyl)-1-[(6-oxidanylidene-5H-[1,3]dioxolo[4,5-g]quinolin-7-yl)methyl]urea]",33.7 µM
23,"Cc1ccc(-n2sc3ccccc3c2=O)cc1S(=O)(=O)N1CCCCC1 [2-(4-methyl-3-piperidin-1-ylsulfonyl-phenyl)-1,2-benzothiazol-3-one]",3.73 µM

row,Compound,IC50
1,CCN(CC)C(=O)c1sc2[nH]c(-c3ccccn3)nc(=O)c2c1C,30 µM
2,COC(=O)c1[nH]c2cccc(OC)c2c1NC(=O)CCN1CCN(c2ccccc2OC)CC1 [MLS000040529],27.4 µM
3,"CC1(C)Cc2nc3sc4c(=O)[nH]cnc4c3cc2CS1 [8,8-dimethyl-7,10-dihydro-8H-thiopyrano[3'',4'':5',6']pyrido[3',2':4,5]thieno[3,2-d]pyrimidin-4(3H)-one]",108 µM
4,"CC(C)c1nc(NCC2CCCO2)c(C#N)c2c1COC(C)(C)C2 (stereo unspecified) [3,3-dimethyl-6-(2-oxolanylmethylamino)-8-propan-2-yl-1,4-dihydropyrano[3,4-c]pyridine-5-carbonitrile]",9.97 µM
5,CN(c1nc2ccccc2n2c(-c3ccco3)nnc12)S(=O)(=O)c1ccccc1 [MLS000083900],35.8 µM
6,"CCc1nnc2sc(-c3ccc(NC(=O)CSc4ccc(Cl)cc4)cc3)nn12 [2-(4-chlorophenyl)sulfanyl-N-[4-(3-ethyl-[1,2,4]triazolo[3,4-b][1,3,4]thiadiazol-6-yl)phenyl]acetamide]",39.6 µM
7,"COCCn1c(C)cc(C(=O)COc2nc3ccccc3nc2C)c1C [1-[1-(2-methoxyethyl)-2,5-dimethyl-3-pyrrolyl]-2-[(3-methyl-2-quinoxalinyl)oxy]ethanone]",3000 µM
8,CC1=C(C(=O)OCC2CCCO2)C(c2ccncc2)C2C(=O)CCCC2=N1 (stereo unspecified),26.9 µM
9,"O=c1[nH]c2cc3c(cc2cc1CN(CCCO)Cc1nnnn1Cc1ccc(F)cc1)OCO3 [7-[[[1-[(4-fluorophenyl)methyl]-1,2,3,4-tetrazol-5-yl]methyl-(3-oxidanylpropyl)amino]methyl]-5H-[1,3]dioxolo[4,5-g]quinolin-6-one]",54.1 µM
10,"Cc1ccc(OCCn2c(C)c(C=Nn3cnnc3)c3ccccc32)cc1 [1-[2-methyl-1-[2-(4-methylphenoxy)ethyl]-3-indolyl]-N-(1,2,4-triazol-4-yl)methanimine]",> 10000 µM
11,"Cc1ccccc1Cn1cc(NC(=O)c2cc3nc(-c4ccco4)cc(C(F)(F)F)n3n2)cn1 [5-(2-furanyl)-N-[1-[(2-methylphenyl)methyl]-4-pyrazolyl]-7-(trifluoromethyl)-2-pyrazolo[1,5-a]pyrimidinecarboxamide]",31.4 µM
12,"COc1ccc(N2C(C)=CS/C2=C(/C#N)c2nnc(N3CCOCC3)n2-c2ccccc2)cc1 [(2Z)-2-[3-(4-methoxyphenyl)-4-methyl-1,3-thiazol-2-ylidene]-2-(5-morpholin-4-yl-4-phenyl-1,2,4-triazol-3-yl)acetonitrile]",> 10000 µM
13,"CN(C)C(=O)Nc1cnc2ccccc2c1 [1,1-dimethyl-3-(3-quinolinyl)urea]",> 10000 µM
14,COc1cccc(Cn2c(=S)[nH]c3ccc(N4CCOCC4)cc3c2=O)c1,36.2 µM
15,O=C(C1CCCCC1)N1CCC(c2nc3c(nnn3Cc3ccccc3Cl)c(=O)[nH]2)CC1,> 10000 µM
16,"CCOc1cc(NC(=O)c2ccco2)c(OCC)cc1NC(=O)CCc1ccc(OC)cc1 [Furan-2-carboxylic acid {2,5-diethoxy-4-[3-(4-methoxy-phenyl)-propionylamino]-phenyl}-amide]",> 10000 µM
17,CC1CC(C)CN(CCCNC(=O)Cn2ncc3c(=O)oc4ccccc4c32)C1 (stereo unspecified) [MLS000116997],> 10000 µM
18,O=C(NCC1CCCO1)c1coc2nc3ccccc3nc12 (stereo unspecified) [MLS000046703],30.6 µM
19,"COc1cccc(C(=O)OCn2nnc3ccccc3c2=O)c1 [(4-oxidanylidene-1,2,3-benzotriazin-3-yl)methyl 3-methoxybenzoate]",> 10000 µM
20,"CC(C)C(OC(=O)CN1C(=O)COc2ccccc21)C(=O)NC1CCCC1 (stereo unspecified) [(3-Oxo-2,3-dihydro-benzo[1,4]oxazin-4-yl)-acetic acid 1-cyclopentylcarbamoyl-2-methyl-propyl ester]",> 10000 µM
21,"COc1cc(NC(=O)c2cccs2)c(C(=O)OCC(=O)NCc2ccco2)cc1OC [4,5-dimethoxy-2-(2-thenoylamino)benzoic acid [2-(2-furfurylamino)-2-keto-ethyl] ester]",> 10000 µM
22,CCc1cc2c(=O)c(-c3nc4ccccc4[nH]3)coc2cc1OC(=O)N1CCOCC1,189 µM
23,"COc1ccccc1-c1nnc2sc(-c3ccc(N(C)C)cc3)nn12 [4-[3-(2-methoxyphenyl)-[1,2,4]triazolo[3,4-b][1,3,4]thiadiazol-6-yl]-N,N-dimethyl-aniline]",16.3 µM

# Same assay, conditions: inactive by the depositor's call
row,Compound,IC50
1,"O=c1cccccc1NCc1ccccc1 [2-(benzylamino)cyclohepta-2,4,6-trien-1-one]",278 µM
2,"Cc1cc(C)c2c(=O)n(CC(=O)NCCCN3CCN(c4ccccc4F)CC3)sc2n1 [2-(4,6-dimethyl-3-oxidanylidene-[1,2]thiazolo[5,4-b]pyridin-2-yl)-N-[3-[4-(2-fluorophenyl)piperazin-1-yl]propyl]ethanamide]",36.6 µM
3,COC(=O)Sc1nnc(-c2ccc(Br)cc2)o1 [MLS000084961],16.4 µM
4,O=c1c2ccccc2[se]n1-c1ccccc1 [2-Phenyl-benzo[d]isoselenazol-3-one],0.513 µM
5,"C/C(C=Nn1cnnc1)=C\c1ccco1 [(E)-3-(2-furanyl)-2-methyl-N-(1,2,4-triazol-4-yl)-2-propen-1-imine]",125 µM
